Data set [1] deals with Bmi-1 protein. Description: Sandwich ELISA Assay (Bmi-1 protein level in HT-1080 cells after compound treatment). It is filed as cell-based. A digest of the protocol: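 HT-1080 cells exposed to compounds for 40–48 h at 37 °C (0.5% DMSO final), then lysed. Bmi-1 in lysates measured by sandwich ELISA (mouse monoclonal capture, rabbit anti-Bmi-1 detection, HRP anti-rabbit, TMB), read at OD450 with OD570 reference against a recombinant Bmi-1 standard curve (0–8000 pg/mL).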

The mark [2] stands for this setting: Table 1, Bmi-1 sandwich ELISA, read-out: ELISA EC50 value for Bmi-1 protein.
[3] abbreviates: read-out: ELISA EC50 value for Bmi-1 protein, Table 1, Bmi-1 sandwich ELISA.

SMILES strings stand for the structures. Where two headings read alike, the source gives them in different places.

In turn, `Cc1nc2ccc(F)cn2c1-c1cc(C#N)cc(Nc2ccc(OC(F)F)c(F)c2)n1` [compound 311, 2-{[4-(difluoromethoxy)-3-fluorophenyl]amino}-6-(6-fluoro-2-methylimidazo[1,2-a]pyridin-3-yl)pyridine-4-carbonitrile] came in with a melting point of 231 to 233 °C. For the same compound, the EC50 in data set [1] (setting [2]) lay within 1 to 10 nM.

`Cc1nn(CC[C@H](O)CO)c(C)c1-c1cncc(Nc2ccc(C(F)(F)F)cc2)n1` [compound 404, (2S)-4-[3,5-dimethyl-4-(6-{[4-(trifluoromethyl)phenyl]amino}pyrazin-2-yl)-1H-pyrazol-1-yl]butane-1,2-diol] returned a melting point of 75 to 77 °C. The EC50 in data set [1] (setting [2]) lay within 100 to 3000 nM.

In turn, `Cc1nn(CC(F)(F)F)c(C)c1-c1cncc(Nc2ccc(C(F)(F)F)cc2)n1` [compound 253, 6-[3,5-dimethyl-1-(2,2,2-trifluoroethyl)-1H-pyrazol-4-yl]-N-[4-(trifluoromethyl)phenyl]pyrazin-2-amine] registered a melting point of 90 to 91 °C. For the same compound, the EC50 in data set [1] (setting [3]) was 1 to 10 nM.

With `N#Cc1cc(Nc2ccc(OC(F)F)cc2)nc(-c2c(C(F)F)nc3ccc(F)cn23)c1` [compound 467, 2-{[4-(difluoromethoxy)phenyl]amino}-6-[2-(difluoromethyl)-6-fluoroimidazo[1,2-a]pyridin-3-yl]pyridine-4-carbonitrile], the melting point lay in the range of 215 to 217 °C. Also, the EC50 in data set [1] (setting [2]) was 1 to 10 nM.

The compound `COC(=O)c1ccc(Nc2cncc(-n3c(C)nc4ccc(F)cc43)n2)cc1` [compound 556, methyl 4-{[6-(6-fluoro-2-methyl-1H-benzimidazol-1-yl)pyrazin-2-yl]amino}benzoate] yielded a melting point of 198 to 200 °C. The 50% effective concentration (EC50) in data set [1] (setting [2]) lay in the range of 10 to 100 nM.

For the compound `Cc1nc2ccc(F)cn2c1-c1cncc(Nc2ccc(OC(F)F)nc2)n1` [compound 480, N-[6-(difluoromethoxy)pyridin-3-yl]-6-(6-fluoro-2-methylimidazo[1,2-a]pyridin-3-yl)pyrazin-2-amine], the melting point was 204 to 207 °C. Also, the EC50 in data set [1] (setting [2]) lay in the range of 100 to 3000 nM.

Compound `Fc1cc(F)c2nc(C3CC3)n(-c3cncc(Nc4ccc(OC(F)F)cc4)n3)c2c1` [compound 462, 6-(2-cyclopropyl-4,6-difluoro-1H-benzimidazol-1-yl)-N-[4-(difluoromethoxy)phenyl]pyrazin-2-amine] gave a melting point of 202 to 203 °C. Further, in data set [1] (setting [2]), the EC50 is 10 to 100 nM.

In turn, `N#Cc1cc(Nc2ccc(C(F)(F)F)cc2)nc(-c2c(C(F)F)nc3ccc(F)cn23)c1` [compound 466, 2-[2-(difluoromethyl)-6-fluoroimidazo[1,2-a]pyridin-3-yl]-6-{[4-(trifluoromethyl)phenyl]amino}pyridine-4-carbonitrile] gave a melting point of 249 to 251 °C. The concentration giving a half-maximal response (EC50) in data set [1] (setting [2]) fell in the range of 10 to 100 nM.

With `Cc1nn(Cc2ccccn2)c(C)c1-c1cncc(Nc2ccc(C(F)(F)F)cc2)n1` [compound 400, 6-[3,5-dimethyl-1-(pyridin-2-ylmethyl)-1H-pyrazol-4-yl]-N-[4-(trifluoromethyl)phenyl]pyrazin-2-amine], the melting point lay within 50 to 51 °C. In addition, in data set [1] (setting [2]), the EC50 was 100 to 3000 nM.

Turning to `Nc1cc(Nc2ccc(OC(F)(F)F)cc2)nc(-c2c(C3CC3)nc3ccc(F)cn23)c1` [compound 367, 6-(2-cyclopropyl-6-fluoroimidazo[1,2-a]pyridin-3-yl)-N^2-[4-(trifluoromethoxy)phenyl]pyridine-2,4-diamine], the melting point is 166 to 168 °C. For the same compound, in data set [1] (setting [2]), the EC50 was 10 to 100 nM.

For the compound `FC(F)(F)c1ccc(Nc2cncc(-c3c(C4CC4)nc4ccccn34)n2)cc1` [compound 129, 6-(2-cyclopropylimidazo[1,2-a]pyridin-3-yl)-N-[4-(trifluoromethyl)phenyl]pyrazin-2-amine], the melting point was 215 to 217 °C. Further, the EC50 in data set [1] (setting [3]) is 1 to 10 nM.

As a reminder, the EC50 is the midpoint of the concentration-response curve. Usually melting point stands for the temperature, or range, at which the solid turns liquid.

These data come from patent US10584115B2, “Substituted pyridine and pyrazine BMI-1 inhibitors” (PTC Therapeutics, Inc., priority 2013, dated 2020).
